Measured values: article PMC8096265, “A functional LSD1 coregulator screen reveals a novel transcriptional regulatory cascade connecting R-loop homeostasis with epigenetic regulation” (Nucleic Acids Research, 2021)

Tests used:
[1] = system: rTetR-LSD1 at synP-mCherry reporter in NIH/3T3 cells; experiment: Flow-cytometric synP-mCherry reporter silencing by rTetR-LSD1; assay type: cell-based, murine; details: n = 3; for effect of inhibitor on rTetR-LSD1 activity at synP (mCherry silencing): 10 μM GSK-LSD1 or 400 nM TSA, started in parallel with DOX (1 μg/ml), vs DMSO
Text: The fluorescent reporter expressing mCherry from a synthetic promoter (synP), consisting of six tetO binding sites upstream of an EF1a promoter, was cloned into pMSCV vector, on which expression of mCherry was driven by the synP promoter element and coupled to Blasticidin resistance via a P2A (pMSCV-tetO-EF1a-mCherry-2A-Blasti). The rTetR-LSD1 fusion construct was cloned into a pRRL backbone by standard cloning methods. The LSD1 construct was kindly provided by Tim Somervaille. Expression was driven from an SFFV promoter and coupled to Hygromycin resistance via a P2A sequence (pRRL-rTetR-LSD1-P2A-Hygro). shRNA guides were cloned into the SGEN vector ([49]).
NIH/3T3, Lenti-X 293T and Platinum-E retroviral packaging cell lines were cultivated in DMEM high glucose media (Sigma-Aldrich) supplemented with 10% FBS, 20 mM glutamate, 10 mM sodium pyruvate, 10 mM HEPES (pH 7.3), 100 U/ml penicillin and […] in an incubator providing 37°C and 5% CO2. For retroviral packaging of pMSCV vectors, 20 μg of plasmid were precipitated for 20 min in HBS buffer (140 mM NaCl, 25 mM HEPES, 0.75 mM Na2HPO4, pH 7.0) together with 125 mM CaCl2 and 10 μg GagPol helper plasmid. The mix was added to a 10 cm dish with Platinum-E cells growing at 75–85% confluence in supplemented DMEM. After 16 and 24 h, the media was replaced with fresh DMEM. Supernatant containing the virus was gathered 40–50 h after transfection, filtered through a 0.45 μm filter and added to the target cells at 50–70% confluence. Antibiotic selection for pMSCV-tetO-EF1a-mCherry-2A-Blasti with 10 μg/ml Blasticidin was started 2 days after transduction and kept up for 7 days. For […] packaging of pRRL-vectors, plasmids were mixed with helper plasmids pCMVR8.74 (pCMVR8.74 was a gift from Didier Trono, Addgene #22036) and pCAG-Eco (pCAG-Eco was a gift from Arthur Nienhuis & Patrick Salmon, Addgene #35617) and 3× (w/w) excess of polyethyleneimine 25K in serum free DMEM. […] Expression of GFP and mCherry was analysed every 1–3 days using a MACSQuant Vyb flow cytometer.

[2] = system: RNA:DNA hybrid structures (R-loops) in NIH/3T3 cells; experiment: DRIP-qPCR with S9.6 antibody, R-loops; assay type: cell-based, murine; details: relative to DMSO, NIH/3T3, n = 3
Experimental: Based on a detailed assessment of various DRIP protocols ([53]), DRIP was performed as described, with slight adaptations to workflow #19 ([53]). In brief, NIH/3T3 cells were harvested, washed once with 1X PBS and cross-linked in 1% formaldehyde/PBS for 10 min at room temperature. Crosslinking was quenched with 500 mM glycine for 5 min at room temperature. Cells were lysed in 300 μl of ChIP lysis buffer (50mM HEPES–KOH at pH 7.5, 140 mM NaCl, 1 mM EDTA at pH 8, 1% Triton X-100, 0.1% sodium-deoxycholate, 1% SDS) per 2 million cells for 30 min on ice and homogenized with a syringe every 10 min. Chromatin was fragmented by sonication using an EpiShear Probe Sonicator (Active Motif) for 2 × 12 cycles (20 s pulse, 30 s pause, 40% amplitude). The fragmented chromatin was supplemented with 300 mM NaCl and 50 μg of RNase A in 450 μl TE buffer (10 mM Tris–HCl pH 8, 10 mM EDTA pH 8) and incubated at 37°C for 1 h. The cross-linked D. melanogaster mononucleosomes were treated in parallel to obtain DNA for spike-in controls. To remove proteins and reverse the cross-links, the samples were treated with 15 μl of Proteinase K (20 mg/ml; Thermo Fisher Scientific) at 65°C for 16 h. […] The pellet was resuspended in 5 mM Tris–HCl, pH 8.5 and concentration was determined by NanoDrop. […]

EZH2 = experiment: Global H3K27me3 signal after EZH2 inhibition; assay type: cell-based; details: EZH2-specific inhibitor; Supplementary Figure S6C
[3] = system: rTetR-LSD1 silencing of synP-mCherry in NIH/3T3 cells; experiment: ChECS pooled shRNA screen, primary sequencing data; assay type: cell-based, murine; details: 14 days DOX; for sequencing reads neg2 / sequencing reads neg3 / sequencing reads neg4 / sequencing reads neg5: mCherry-negative sorted population; for sequencing reads neg2 / sequencing reads pos2: replicate 2; for sequencing reads neg3 / sequencing reads pos3: replicate 3; for sequencing reads neg4 / sequencing reads pos4: replicate 4; for sequencing reads neg5 / sequencing reads pos5: replicate 5; for sequencing reads pos1 / sequencing reads pos2 / sequencing reads pos3 / sequencing reads pos4 / sequencing reads pos5: mCherry-positive sorted population; for sequencing reads pos1: replicate 1
Text: After spiking in control shRNAs at equimolar amounts, the shRNA-mirE library (5451 shRNAs and 8 control shRNAs) targeting 1010 chromatin-associated murine genes was transduced into NIH/3T3 cells expressing the synP-mCherry reporter and rTetR-LSD1. To ensure library representation, a total of 30 million cells were infected with 10% transduction efficiency using conditions that predominantly lead to a single retroviral integration and represent each shRNA in a calculated number of >500 cells. Cells were split into replicates and selected with 2.5 mg/ml Neomycin for 7 days before starting treatment with 1 μg/ml doxycycline. Throughout selection >3 × 10^6 cells per replicate were maintained at each passage to preserve library representation. After 14 days of DOX treatment, cells were sorted into mCherry-positive (top 6–8%, minimum of 5 × 10^5 cells) and mCherry-negative (lowest 75–80%, minimum of 6 × 10^6 cells, see Supplementary Figure S2) populations using a FACS Aria III. Genomic DNA for both populations and 5 replicates was isolated with phenol-extraction using PhaseLock tubes, followed by ethanol precipitation. For each sample, DNA from at least 10^6 cells was used as template in multiple parallel 50-μl PCR reactions, each containing 1 μg template, 1× AmpliTaq Gold buffer, 0.2 mM of each dNTP, 2 mM MgCl2, 0.3 μM of each primer and 1.25 U AmpliTaq Gold Polymerase (Life Technologies). In a first round of PCRs, random barcodes and sample barcodes were added to the shRNA sequences using the following cycling parameters: 95°C for 10 min; 28 cycles of (95°C for 30 s, 54°C for 45 s and 72°C for 60 s); 72°C for 7 min and primers MM2P51_for and MM2P71_rev (Supplementary Table S3). PCR products were combined for each sample, purified from a 1% agarose gel and 20 ng per sample were transferred to a second round of PCR, using similar cycling parameters as for PCR1, but with only 10 ng template per reaction, 6 cycles of amplification and primers MM2P52_for and MM2P72_rev_N708 (Supplementary Table S3). In the second PCR, standard Illumina P7 adaptors and the Illumina N708 index were added to the sequences (total product length = 428 bp). All primers used for the library preparation are listed in […]. The final libraries were cleaned up from a 1% agarose gel, pooled and analysed on an Illumina HiSeq 3000 deep sequencer (150 bp read length including the 22 nucleotides of the guide strand), using standard Illumina primers. Sequence processing was performed using a public Galaxy server (www.usegalaxy.eu). All primary screen data are provided in Supplementary Data Table S1. For each shRNA, the number of matching reads was normalized to the total number of library-specific reads per lane and imported into Microsoft Excel for further analysis. Completely depleted shRNAs (0 reads at T0) obtained a fold depletion value of 1 × 10^−3. The average enrichment score for each individual shRNA was calculated by dividing the geometric mean of the normalized reads of the mCherry+ population by the respective normalized reads mCherry– populations (mCherry+/mCherry–) across five replicates. The gene score was derived by summarizing the average enrichment score of all shRNAs per gene. P-values are based on a Poisson distribution of each shRNA in each individual replicate followed by the combination of all P-values across all replicates using Fisher′s method (cumulative χ^2). χ^2 is a chi-squared distribution with 2k degrees of freedom, where k is the number of tests being combined. This fact was used to determine the P-value for χ^2 followed by a Bonferroni correction for multiple comparison to obtain a P-value for each investigated gene in the library.

| Molecule | effect of inhibitor on rTetR-LSD1 activity at synP (mCherry silencing) [1] | sequencing reads neg2 [3] | sequencing reads neg3 [3] | sequencing reads neg4 [3] | sequencing reads neg5 [3] | sequencing reads pos1 [3] | sequencing reads pos2 [3] | sequencing reads pos3 [3] | sequencing reads pos4 [3] | sequencing reads pos5 [3] | also measured |
| --- | --- | --- | --- | --- | --- | --- | --- | --- | --- | --- | --- |
| CCCc1cc(C)[nH]c(=O)c1CNC(=O)c1cc(-c2ccnc(N3CCN(C)CC3)c2)cc2c1cnn2C(C)C [GSK343] |  |  |  |  |  |  |  |  |  |  | LSD1 silencing capacity at the synP element after GSK343 treatment ([1]; 5 μM GSK343 vs DMSO during rTetR-LSD1 recruitment via DOX, time course): diminished LSD1 silencing capacity at the synP element; R-loop occupancy after GSK343 treatment ([2]; 5 μM GSK343, 3 days, synP element and representative endogenous loci): increased R-loop occupancy; H3K27me3 signal after GSK343 treatment (EZH2): global reduction of H3K27me3 signal |
| c1ccc([C@@H]2C[C@H]2NC2CCNCC2)cc1 [GSK-LSD1] | the activity of rTetR-LSD1 at the synP element is dependent on the catalytic activity of LSD1 and HDACs |  |  |  |  |  |  |  |  |  | R-loops after GSK-LSD1 treatment ([2]; 50 μM GSK-LSD1, 3 days, synP element and representative endogenous regions): substantial increase in R-loops |
| CC(/C=C/C(=O)NO)=C\[C@@H](C)C(=O)c1ccc(N(C)C)cc1 [Trichostatin A (TSA), Trichostatin A] | the activity of rTetR-LSD1 at the synP element is dependent on the catalytic activity of LSD1 and HDACs |  |  |  |  |  |  |  |  |  |  |
| Homez.5313: library shRNA, guide TAAAACAGTAGTTCCTAGCCTT |  | 0.001 | 22 | 0 | 4 | 130 | 19 | 22 | 4 | 48 |  |
| Kdm4b.2934: library shRNA, guide TTCTTGGTGATGACGATCTGGC |  | 0.001 | 0 | 0 | 14 | 14 | 426 | 0 | 1 | 159 |  |
